Test results published in paper PMC6916368, “Cell‐Based Optimization of Covalent Reversible Ketoamide Inhibitors Bridging the Unprimed to the Primed Site of the Proteasome β5 Subunit” (Chemmedchem, 2019).
Numbered stars: 1 amine (or outer) side, 2 acyl side, 3 side chain; on linkers, the order of the positions; unused ones are H or OH. Peptide text beside a SMILES is read from it. * marks the point of attachment. AMC = Cc1cc(=O)oc2cc(N*)ccc12; Suc = O=C(CCC(=O)[*:2])[*:1]; Cbz = O=C(OCc1ccccc1)*; OtBu = CC(C)(C)O*

What was measured:
[1] = test system: proteasome in MV4‐11 cells; experiment: Cellular conversion of fluorogenic proteasome substrates (assay validation); format: cell-based
Method: First, we benchmarked the fluorogenic substrate 30 towards the standard substrate 31 (Suc‐LLVY‐AMC) using varying substrate concentrations and cell numbers of MV4‐11 cells (Figure 5b). The highest substrate conversion was detected using 100 μM 30 in 50.000 cells (135 rfu/min) in MV4‐11 cells and was converted ∼4 times faster than 31 (33.3 rfu/min). There was an increase of differences in conversion rates with smaller number of cells (10.000 cells, 100 μM substrate: 10‐fold conversion) and lower substrate concentration (50.000 cells, 25 μM substrate: 15‐fold conversion).
In‐cell determination of proteasome IC 50. […] Inhibitors were serially diluted in RPMI‐1640 medium as 10‐fold stocks, added to cells giving final concentrations and incubated for 0 h–13 h at 37 °C and 5 % CO2 (Figure S5–S8). Substrate was added to give a final concentration of 30 μM and substrate conversion was detected by fluorescence measurement over 100 min (assay validation) or 60 min (inhibition assays) using a Tecan M1000 microplate reader. Rate of fluorescence change over time was calculated, rates for negative (no‐cell) control was subtracted and normalized to positive control (no inhibitor). Dose‐response curves were fitted to the equation “Y=100/(1+10^((L°^gIC50−X)*HillSl°^pe))” using GraphPad Prism 7.02 (SI chapter 2b, Figure S2–S4).

MV4‐11 cells = experiment: Cell viability endpoint assay (Celltiter Blue, 72 h); format: cell-based; settings: Homo sapiens, MV4-11, mean±SD from two independent experiments
Method: Cell lines. MV4‐11 (ACC 102), Jurkat (ACC 282) and THP‐1 (ACC 16) cells were obtained from DSMZ and maintained at 37 °C and 5 % CO2 at densities between 0.2–1×10^6 cells per mL in RMPI‐1640 medium supplemented with 10 % FBS, L‐glutamine (2 mM) and penicillin/streptomycin.
Cell viability endpoint assay. For the determination of cytotoxicity of proteasome inhibitors 50.000 cells per well were plated in 90 μl RPMI‐1640 medium supplemented with 0.1 % FBS and incubated overnight at 37 °C and 5 % CO2. Inhibitors were serially diluted in RPMI‐1640 medium as 10‐fold stocks and added to cells giving the final concentration (1 nM to 10 μM, Figure S2–S4) and incubated for 72 h at 37 °C and 5 % CO2. Cell viability was determined using the Celltiter Blue assay (Promega) by adding 20 μl of reagent, incubation for 120 minutes at 37 °C and 5 % CO2 and fluorescent read‐out using a Tecan M1000 microplate reader. Dose‐response curves were fitted to the equation “Y=Bottom+(Top‐Bottom)/(1+10^(X−L°^gIC50))” using GraphPad Prism 7.02. IC50 values are determined from technical triplicates as mean value of two independent experiments. Standard deviations (Table S1) as well as dose response curves (SI chapter 2b) are given in the supplementary information.

[2] = biological target: T1, β2c subunit of isolated human 20S proteasome (Homo sapiens, UniProt Q99436); experiment: Proteasome inhibition assay (20 S Proteasome Assay Kit, Bz‐VGR‐AMC); format: biochemical; settings: c = 1 µM, n=1; read-out: Inhibition cCP β2
T1 construct: purchased Enzo Life Sciences
Method: (§1) Proteasome inhibition assay. Bortezomib (Selleckchem) and carfilzomib (MedChemExpress) were purchased and used without further purification. The 20 S Proteasome Assay Kit for Drug Discovery was used according to the supplier's protocol using Suc‐LLVY‐AMC (β5), Bz‐VGR‐AMC (β2) or Z‐LLE‐AMC (β1) as substrates (Enzo Life Sciences). Single point measurements of residual activity of proteasome activity were performed at a final concentration of 100 nM (n=3, β5c, β5i) or 1 μM (n=1, β1c, β2c, β5c, β5i, SI chapter 2a, Table S1). […] Inhibitors were prepared in 2‐fold concentration (cfinal=100 nM) and added to proteasomes (mfinal=200 ng/well). After 30 min incubation, substrate was added (cfinal=100 μM), incubated for 60 minutes and fluorescence was read using a Tecan M1000 microplate reader. Dose‐response curves were fitted to the equation Y=100/(1+10^((L°^gIC50−X)*HillSl°^pe)) using GraphPad Prism 7.02. IC50 values were determined from technical duplicates as mean value of three independent experiments.

[3] = biological target: T2, β5i subunit of isolated human 20S proteasome (Homo sapiens, UniProt P28062); experiment: Proteasome inhibition assay (20 S Proteasome Assay Kit, Suc‐LLVY‐AMC); format: biochemical
T2 construct: purchased Enzo Life Sciences
Method: as §1, with “Bortezomib (Selleckchem) and carfilzomib (MedChemExpress) were purchased and used without further purification.” left out, “Dose‐response curves were fitted to the equation Y=100/(1+10^((L°^gIC50−X)*HillSl°^pe)) using GraphPad Prism 7.02.” left out

[4] = biological target: T3, β5c subunit of isolated human 20S proteasome (Homo sapiens, UniProt P28074); experiment: as above; format: biochemical
T3 construct: purchased Enzo Life Sciences
Method: as §1, with “Bortezomib (Selleckchem) and carfilzomib (MedChemExpress) were purchased and used without further purification.” left out, “Dose‐response curves were fitted to the equation Y=100/(1+10^((L°^gIC50−X)*HillSl°^pe)) using GraphPad Prism 7.02.” left out

Danio rerio embryos [5] = experiment: Danio rerio embryo toxicity assay (not dechorionated); format: in vivo
Method: Danio rerio embryo toxicity assay. Fish keeping protocols are approved by the Darmstadt administrative authority and documented. All fish were treated humanely. […] Embryos were decollated into separate wells containing a total volume of 200 μL and the inhibitor at the given concentration.

[6] = biological target: T4, β1c subunit of isolated human 20S proteasome (Homo sapiens, UniProt P28072); experiment: Proteasome inhibition assay (20 S Proteasome Assay Kit, Z‐LLE‐AMC); format: biochemical; settings: c = 1 µM, n=1; read-out: Inhibition cCP β1
T4 construct: purchased Enzo Life Sciences
Method: as §1, with “Bortezomib (Selleckchem) and carfilzomib (MedChemExpress) were purchased and used without further purification.” left out, “Dose‐response curves were fitted to the equation Y=100/(1+10^((L°^gIC50−X)*HillSl°^pe)) using GraphPad Prism 7.02.” left out

Danio rerio embryos [7] = experiment: Danio rerio escape response (neurotoxicity) assay, dechorionated embryos; format: in vivo; settings: for C-Bend Amplitude, Difference between means / C-Bend duration, Difference between means / Number of movements per 100 ms, Difference between means / Number of total movements, Difference between means: versus control
Method: Danio rerio escape response assay. 24 hours past fertilization embryos were dechorionated and transferred into 96‐well plates containing 198 μL of E3 media at 26 °C. […] Incubation times were 24 h, 48 h and 72 h. Survival of the embryos was determined by visual analysis of heart‐beat. For recording the touch evoked escape response, embryos were transferred to a microscopy slide with cavity that is placed on a SL‐300 LED Soft Light (Dörr, Neu‐Ulm, Germany) under a MotionBlitz EoSens mini1‐1 MC1370 high speed camera (Mikrotron, Unterschleißheim, Germany, Figure S18). An escape response was triggered by a touch stimulus at the trunk of embryos using a small sewing needle, which is slightly blunted. For each embryo, a maximum of 50 stimuli was applied. […] No escape response was determined if only one embryo was alive at 96 hpf. Movement was recorded at 96 hpf at 500 frames per second for 3 seconds using the MotionBlitzDirector 2 software. Determination of the amplitude α defined by the body angle spanned between the head, yolk and tail using a MATLAB‐based software tool and plotted using GraphPad Prism 7.02.

[8] = 100 μM substrate, 50.000 MV4‐11 cells
[9] = 25 μM, 24 h, listed as bortezomib
[10] = 25 μM, 48 h, listed as bortezomib
[11] = 50 μM, 24 h, listed as bortezomib

## Cc1cc(=O)oc2cc(NC(=O)[C@H](Cc3ccc(O)cc3)NC(=O)[C@@H](NC(=O)[C@H](CC(C)C)NC(=O)[C@H](CC(C)C)NC(=O)CCC(=O)O)C(C)C)ccc12 [Compound 31, Suc‐LLVY‐AMC] (Suc-LLVY-{AMC})
[1]; [8]
  substrate conversion: 33.3 rfu/min

## Cc1cc(=O)oc2cc(NC(=O)[C@H](C)NC(=O)[C@H](CC(=O)OC(C)(C)C)NC(=O)[C@H](CC(C)C)NC(=O)OCc3ccccc3)ccc12 [Compound 30, Z‐LD(OtBu)A‐AMC] (Cbz-Leu-Asp(OtBu)-Ala-{AMC})
[1]; [8]
  conversion of 30 relative to 31: ~4 times
  substrate conversion: 135 rfu/min
[1]; 10.000 cells, 100 μM substrate
  conversion of 30 relative to 31: 10 fold
[1]; 50.000 cells, 25 μM substrate
  conversion of 30 relative to 31: 15 fold

## CC(C)C[C@H](NC(=O)[C@H](Cc1ccccc1)NC(=O)c1cnccn1)B(O)O [Bortezomib 1, Bortezomib, reference compound]
MV4‐11 cells
  IC50: 34 ± 5 nM
[2]
  inhibition at 1 µM: 5%
[3]; c = 1 µM, n=1, read-out: Inhibition iCP β5
  inhibition at 1 µM: 98%
[3]; c=100 nM, read-out: Rel. Inhibition β5i
  inhibition at 0.1 µM: 85%
[4]; c = 1 µM, n=1, read-out: Inhibition cCP β5
  inhibition at 1 µM: 98%
[4]; c=100 nM, read-out: Rel. Inhibition β5c
  inhibition at 0.1 µM: 89%
Danio rerio embryos [5]; 1 µM, 24 h
  Survival of embryos (not dechorionated): 100%
Danio rerio embryos [5]; 1 µM, 48 h
  Survival of embryos (not dechorionated): 100%
Danio rerio embryos [5]; 1 µM, 72 h
  Survival of embryos (not dechorionated): 100%
Danio rerio embryos [5]; 1 µM, 96 h
  Survival of embryos (not dechorionated): 100%
Danio rerio embryos [5]; 5 µM, 24 h
  Survival of embryos (not dechorionated): 100%
Danio rerio embryos [5]; 5 µM, 48 h
  Survival of embryos (not dechorionated): 100%
Danio rerio embryos [5]; 5 µM, 72 h
  Survival of embryos (not dechorionated): 100%
Danio rerio embryos [5]; 5 µM, 96 h
  Survival of embryos (not dechorionated): 80%
Danio rerio embryos [5]; 10 µM, 24 h
  Survival of embryos (not dechorionated): 100%
Danio rerio embryos [5]; 10 µM, 48 h
  Survival of embryos (not dechorionated): 100%
Danio rerio embryos [5]; 10 µM, 72 h
  Survival of embryos (not dechorionated): 100%
Danio rerio embryos [5]; 10 µM, 96 h
  Survival of embryos (not dechorionated): 100%
Danio rerio embryos [5]; 25 µM, 24 h
  Survival of embryos (not dechorionated): 100%
Danio rerio embryos [5]; 25 µM, 48 h
  Survival of embryos (not dechorionated): 100%
Danio rerio embryos [5]; 25 µM, 72 h
  Survival of embryos (not dechorionated): 100%
Danio rerio embryos [5]; 25 µM, 96 h
  Survival of embryos (not dechorionated): 80%
[6]
  inhibition at 1 µM: 80%
Danio rerio embryos [7]; 25 µM, 24 h
  Reflex Duration: 540,2 ± 136,6 ms
  mean reflexes per stimuli: 8%
  C-Bend Amplitude, Difference between means: 2,556 ± 25,09
  C-Bend duration, Difference between means: 13 ± 6,633
  Number of movements per 100 ms, Difference between means: -1,559 ± 0,4739
Danio rerio embryos [7]; 25 μM, 24 h, listed as 1
  C-Bend Amplitude: 131,6 ± 21,3 °
  C-Bend Duration: 32,67 ± 6,489 ms
  Number of movements: 11,56 ± 3,33
  Number of movements per 100 ms: 1,916 ± 0,3504
Danio rerio embryos [7]; [9]
  C-Bend Amplitude: 131.6±21.3 °
  C-Bend Duration: 32.7 ± 6.5 ms
  Number of movements per 100 ms: 1.92±0.35
Danio rerio embryos [7]; 25 µM, 48 h
  Reflex Duration: 289,3 ± 198,9 ms
  mean reflexes per stimuli: 2%
  C-Bend Amplitude, Difference between means: -122,1 ± 14,37
  Number of movements per 100 ms, Difference between means: -3,231 ± 0,3577
  Number of total movements, Difference between means: -10,89 ± 3,622
Danio rerio embryos [7]; 25 μM, 48 h, listed as 1
  C-Bend Amplitude: 6,889 ± 5,549 °
  C-Bend Duration: 8,222 ± 6,654 ms
  Number of movements: 3,222 ± 2,259
  Number of movements per 100 ms: 0,2435 ± 0,1615
Danio rerio embryos [7]; [10]
  C-Bend Amplitude: 6.9±5.6 °
  Number of movements per 100 ms: 0.24±0.32
Danio rerio embryos [7]; 50 μM, 24 h
  Number of movements per 100 ms: 0±0
  Reflex Duration: 0 ± 0 ms
Danio rerio embryos [7]; 50 μM, 24 h, 50 stimuli per embryo, 150 stimuli total
  responses to touch stimuli: 0
Danio rerio embryos [7]; 50 μM, 24 h, listed as 1
  C-Bend Amplitude: 0 ± 0 °
  C-Bend Duration: 0 ± 0 ms
  Number of movements: 0 ± 0
Danio rerio embryos [7]; [11]
  C-Bend Amplitude: 0±0 °
  C-Bend Duration: 0 ± 0 ms
  Number of movements: 0
Danio rerio embryos [7]; 50 µM, 24 h
  C-Bend Amplitude, Difference between means: -129 ± 13,26
  C-Bend duration, Difference between means: -19,67 ± 1,374
  Number of movements per 100 ms, Difference between means: -3,475 ± 0,3192
  Number of total movements, Difference between means: -14,11 ± 2,831
Danio rerio embryos [7]; dechorionated embryos
  overall survival at low doses: 92%
Danio rerio embryos [7]; dechorionated, 25 µM, 24 h
  Survived (embryos of 4): 4
Danio rerio embryos [7]; dechorionated, 25 µM, 48 h
  Survived (embryos of 4): 3
Danio rerio embryos [7]; dechorionated, 50 µM, 24 h
  Survived (embryos of 4): 4
Danio rerio embryos [7]; dechorionated, 50 μM 48 h to 72 h and 25 μM 72 h
  treated embryos dead: 100%
